Results on six molecules are retold here after US7101667B2, “Lanthanide binding tags” (Massachusetts Institute of Technology, priority 2001, dated 2006).

Series [1] can be described thus: Tb^3+ affinity of LBT-S-peptide fusions by isothermal titration calorimetry. It counts as binding. The source says: The affinity of the LBT site for terbium in the context of the fusion peptide was also unchanged when compared with the unmodified LBT sequences with affinities in the low μM range.
Series [2] can be described thus: Steady-state terbium fluorescence of LBT-S-peptide fusions compared to LBT1. It counts as physicochemical. The source says: Steady-state fluorescence experiments of the LBT-S-peptide fusions indicated minimal impact of the fusion on the terbium fluorescence compared to LBT1 (see Table 2).
Series [3] in a line: Tb^3+ binding affinity of the disulfide constrained LBT. How it is done: Affinity is determined by titration with lanthanide and detection using fluorescence, circular dichroism, NMR or calorimetry. In the case of tightly binding sequences, it may be necessary to employ competition experiments.
The disulfide constained LBT, ACA-[…]-CAA (known as CC2) binds to Tb^3+ with a KD of 300 nM, an order of magnitude more tightly than other reported Ca-binding peptides. (Kanellis, et al. Arch. Biochem. Biophys. 1983, 220, 530-540; Lopez, et al. Proc. Natl. Acad. Sci. USA 2002, 99, 1298-1303).

The nature of series [4]: Lanthanide affinity of free LBT and HIS-LBT-Ub by calorimetry. It counts as binding. Conditions: read-out: KD for lanthanide ions. The source says: The purified LBT-protein conjugates were further studied to assess whether the fluorescence and binding properties of the LBT were preserved in the protein conjugates.
In series [5] the target is T1, RNAse S-protein (bovine, UniProt P61823 47-150).
T1 construct: range 21-124; Numbers count on mature RNAse A; also called Pro-S
T1 sequence (looked up): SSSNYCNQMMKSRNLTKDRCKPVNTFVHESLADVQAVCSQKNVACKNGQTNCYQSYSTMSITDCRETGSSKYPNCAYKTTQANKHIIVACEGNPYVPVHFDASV
The experiment in a line: isothermal titration calorimetry. In general terms: Isothermal titration calorimetry measures the heat released or taken up as one component is titrated into another.

The target in series [6] is T2, LBT-GPPP-S-Peptide.
T2 chain: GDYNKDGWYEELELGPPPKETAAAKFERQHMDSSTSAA

The target of series [7] is LBT-PP-S-Peptide.
Where [8] appears, read: read-out: KD Tb^3+ S-Peptide, fusion peptide alone.
Setting [9] is: read-out: KD Tb^3+ [S-Peptide/S-protein], peptide complexed with S-protein.

As to `CSCC[C@H](NC(=O)[C@H](Cc1c[nH]cn1)NC(=O)[C@H](CCC(N)=O)NC(=O)[C@H](CCCNC(=N)N)NC(=O)[C@H](CCC(=O)O)NC(=O)[C@H](Cc1ccccc1)NC(=O)[C@H](CCCCN)NC(=O)[C@H](C)NC(=O)[C@H](C)NC(=O)[C@H](C)NC(=O)[C@@H](NC(=O)[C@H](CCC(=O)O)NC(=O)[C@H](CCCCN)NC(=O)[C@@H]1CCCN1C(=O)[C@@H]1CCCN1C(=O)[C@@H]1CCCN1C(=O)CNC(=O)[C@H](CC(C)C)NC(=O)[C@H](CCC(=O)O)NC(=O)[C@H](CC(C)C)NC(=O)[C@H](CCC(=O)O)NC(=O)[C@H](CCC(=O)O)NC(=O)[C@H](Cc1ccc(O)cc1)NC(=O)[C@H](Cc1c[nH]c2ccccc12)NC(=O)CNC(=O)[C@H](CC(=O)O)NC(=O)[C@H](CCCCN)NC(=O)[C@H](CC(N)=O)NC(=O)[C@H](Cc1ccc(O)cc1)NC(=O)[C@H](CC(=O)O)NC(=O)CN)[C@@H](C)O)C(=O)N[C@@H](CC(=O)O)C(=O)N[C@@H](CO)C(=O)N[C@@H](CO)C(=O)N[C@H](C(=O)N[C@@H](CO)C(=O)N[C@@H](C)C(=O)N[C@@H](C)C(=O)O)[C@@H](C)O` [LBT-GPPP-S-Peptide], the Kd was 6.6 µM in series [1] (setting [8]) and 6.7 µM in series [1] (setting [9]). Besides, the “Fluorescence Relative to LBT1” value in series [2] was 96%.
As to `CSCC[C@H](NC(=O)[C@H](Cc1c[nH]cn1)NC(=O)[C@H](CCC(N)=O)NC(=O)[C@H](CCCNC(=N)N)NC(=O)[C@H](CCC(=O)O)NC(=O)[C@H](Cc1ccccc1)NC(=O)[C@H](CCCCN)NC(=O)[C@H](C)NC(=O)[C@H](C)NC(=O)[C@H](C)NC(=O)[C@@H](NC(=O)[C@H](CCC(=O)O)NC(=O)[C@H](CCCCN)NC(=O)[C@@H]1CCCN1C(=O)[C@@H]1CCCN1C(=O)[C@H](CC(C)C)NC(=O)[C@H](CCC(=O)O)NC(=O)[C@H](CC(C)C)NC(=O)[C@H](CCC(=O)O)NC(=O)[C@H](CCC(=O)O)NC(=O)[C@H](Cc1ccc(O)cc1)NC(=O)[C@H](Cc1c[nH]c2ccccc12)NC(=O)CNC(=O)[C@H](CC(=O)O)NC(=O)[C@H](CCCCN)NC(=O)[C@H](CC(N)=O)NC(=O)[C@H](Cc1ccc(O)cc1)NC(=O)[C@H](CC(=O)O)NC(=O)CN)[C@@H](C)O)C(=O)N[C@@H](CC(=O)O)C(=O)N[C@@H](CO)C(=O)N[C@@H](CO)C(=O)N[C@H](C(=O)N[C@@H](CO)C(=O)N[C@@H](C)C(=O)N[C@@H](C)C(=O)O)[C@@H](C)O` [LBT-PP-S-Peptide], the values for the Kd in series [1] (setting [8]) and in series [1] (setting [9]) were 3.3 µM and 9.6 µM, respectively. The “Fluorescence Relative to LBT1” value in series [2] is on record as 86%.
For the molecule “ACA-DYNKDGWYEELE-CAA [CC2, cysteine constrained variant of LBT1]”, in series [3], the Kd turned out to be 300 nM.
With GDYNKDGWYEELEL [LBT1], the Kd in series [4] amounted to 5 µM. Besides, the “KD Tb^3+ S-Peptide” value in series [1] (fusion peptide alone) is on record as “low μM”.

B1: LBT-GPPP-S-Peptide (peptide)
peptide: T2 chain
notes: also called LBT-S-peptide fusion; LBT tagged S-peptide analog
Take B1: the Kd in series [5] was 300 nM.

B2: RNAse S-protein (protein)
chain: T1 sequence (looked up)
As to B2, the “catalytic activity of the reconstituted enzymes (cleavage of a fluorescent RNA substrate)” value in series [6] and in series [7] was “the S-protein/LBT-S-peptide construct has similar catalytic activity to the native RNAse S in the absence of Tb^+3” throughout.
